Data from patent publication US20250144094A1 (Erasca, Inc., priority 2021, published 2025).

Molecular target: Recombinant human ULK1 (1-649) (Homo sapiens (Human), UniProt O75385)
Test: ULK1 ADP Glo kinase activity assay, new method (ULKtide peptide substrate)
Conditions: 25° C., 40 minutes, read-out: ULK1 biochemical IC50
In short: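 GST-tagged human ULK1 (1-649) from Sf9 cells was reacted with ULKtide peptide and ATP for 40 min at 25 °C across 12-point compound dilutions from 10 μM. ADP formed was quantified by ADP-Glo luminescence; IC50 came from four-parameter fits relative to DMSO controls.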

Sequence of Recombinant human ULK1 (1-649) (O75385 1-649): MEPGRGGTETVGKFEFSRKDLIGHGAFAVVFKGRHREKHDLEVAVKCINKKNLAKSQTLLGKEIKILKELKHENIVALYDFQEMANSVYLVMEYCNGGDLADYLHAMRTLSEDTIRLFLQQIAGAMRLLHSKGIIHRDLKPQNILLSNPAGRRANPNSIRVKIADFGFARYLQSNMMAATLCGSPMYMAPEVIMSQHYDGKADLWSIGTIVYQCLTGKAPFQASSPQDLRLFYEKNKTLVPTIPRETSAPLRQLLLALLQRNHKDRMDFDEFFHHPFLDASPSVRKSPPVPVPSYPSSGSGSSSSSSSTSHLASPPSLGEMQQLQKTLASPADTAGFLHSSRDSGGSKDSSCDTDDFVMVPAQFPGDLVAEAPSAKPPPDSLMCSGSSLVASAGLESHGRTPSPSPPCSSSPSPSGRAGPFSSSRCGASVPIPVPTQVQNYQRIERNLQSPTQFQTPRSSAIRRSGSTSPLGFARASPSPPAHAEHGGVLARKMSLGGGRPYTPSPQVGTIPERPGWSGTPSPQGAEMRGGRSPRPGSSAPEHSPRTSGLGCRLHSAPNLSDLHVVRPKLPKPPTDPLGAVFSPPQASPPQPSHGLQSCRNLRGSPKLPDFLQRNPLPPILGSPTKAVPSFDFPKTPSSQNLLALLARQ

Row | SMILES | IC50 [nM]
1 | CCN1CCc2cc(Nc3ncc(C(F)(F)F)c(-c4cc5c(s4)C(=O)N(CC)CCS5(=O)=O)n3)c(C3CC3)cc2C1 [Example 199, 7-(2-((7-cyclopropyl-2-ethyl-1,2,3,4-tetrahydroisoquinolin-6-yl)amino)-5-(trifluoromethyl)pyrimidin-4-yl)-4-ethyl-3,4-dihydrothieno[2,3-f][1,4]thiazepin-5(2H)-one 1,1-dioxide] | ≤ 5
2 | CN1CCc2cc(Cl)c(Nc3ncc(C(F)(F)F)c(-c4cc5c(s4)C(=O)N(C)CCS5(=O)=O)n3)cc2C1 [Example 169] | ≤ 5
3 | CCc1cc(N2C[C@H]3CC[C@@H](C2)N3C)ccc1Nc1ncc(C(F)(F)F)c(-c2cc3c(s2)C(=O)N(C2COC2)CCS3(=O)=O)n1 [Example 348, 7-(2-((2-ethyl-4-((1R,5S)-8-methyl-3,8-diazabicyclo[3.2.1]octan-3-yl)phenyl)amino)-5-(trifluoromethyl)pyrimidin-4-yl)-4-(oxetan-3-yl)-3,4-dihydrothieno[2,3-f][1,4]thiazepin-5(2H)-one 1,1-dioxide] | ≤ 5
4 | CCc1cc2c(cc1Nc1ncc(C(F)(F)F)c(-c3cc4c(s3)C(=O)N(C)CCS4(=O)=O)n1)CCN(C)C2 [Example 148, 7-(2-((7-ethyl-2-methyl-1,2,3,4-tetrahydroisoquinolin-6-yl)amino)-5-(trifluoromethyl)pyrimidin-4-yl)-4-methyl-3,4-dihydrothieno[2,3-f][1,4]thiazepin-5(2H)-one 1,1-dioxide] | ≤ 5
5 | O=C1c2sc(-c3nc(Nc4cc5c(cc4Cl)CNCC5)ncc3C(F)(F)F)cc2S(=O)(=O)CCN1CC(F)(F)F [Example 143, 7-(2-((7-chloro-1,2,3,4-tetrahydroisoquinolin-6-yl)amino)-5-(trifluoromethyl)pyrimidin-4-yl)-4-(2,2,2-trifluoroethyl)-3,4-dihydrothieno[2,3-f][1,4]thiazepin-5(2H)-one 1,1-dioxide] | ≤ 5
6 | CCN1CCc2cc(Nc3ncc(C(F)(F)F)c(-c4cc5c(s4)C(=O)N(C)CCS5(=O)=O)n3)c(C)cc2C1 [Example 185, 7-(2-((2-ethyl-7-methyl-1,2,3,4-tetrahydroisoquinolin-6-yl)amino)-5-(trifluoromethyl)pyrimidin-4-yl)-4-methyl-3,4-dihydrothieno[2,3-f][1,4]thiazepin-5(2H)-one 1,1-dioxide] | ≤ 5
7 | CSc1cc2c(cc1Nc1ncc(C(F)(F)F)c(-c3cc4c(s3)C(=O)N(C)CCS4(=O)=O)n1)CCN(C)C2 [Example 171, 4-methyl-7-(2-((2-methyl-7-(methylthio)-1,2,3,4-tetrahydroisoquinolin-6-yl)amino)-5-(trifluoromethyl)pyrimidin-4-yl)-3,4-dihydrothieno[2,3-f][1,4]thiazepin-5(2H)-one 1,1-dioxide] | ≤ 5
8 | CCN1CCS(=O)(=O)c2cc(-c3nc(Nc4cc5c(cc4Cl)CCNC5)ncc3C(F)(F)F)sc2C1=O [Example 204, 7-(2-((6-chloro-1,2,3,4-tetrahydroisoquinolin-7-yl)amino)-5-(trifluoromethyl)pyrimidin-4-yl)-4-ethyl-3,4-dihydrothieno[2,3-f][1,4]thiazepin-5(2H)-one 1,1-dioxide] | ≤ 5
9 | CN1CCc2cc(Nc3ncc(C(F)(F)F)c(-c4cc5c(s4)C(=O)N(C4CC4)CCS5(=O)=O)n3)c(Cl)cc2C1 [Example 167, 7-(2-((7-chloro-2-methyl-1,2,3,4-tetrahydroisoquinolin-6-yl)amino)-5-(trifluoromethyl)pyrimidin-4-yl)-4-cyclopropyl-3,4-dihydrothieno[2,3-f][1,4]thiazepin-5(2H)-one 1,1-dioxide] | ≤ 5
10 | CCN1CCc2cc(Nc3ncc(C(F)(F)F)c(-c4cc5c(s4)C(=O)N(C4CCC4)CCS5(=O)=O)n3)c(Cl)cc2C1 [Example 203, 7-(2-((7-chloro-2-ethyl-1,2,3,4-tetrahydroisoquinolin-6-yl)amino)-5-(trifluoromethyl)pyrimidin-4-yl)-4-cyclobutyl-3,4-dihydrothieno[2,3-f][1,4]thiazepin-5(2H)-one 1,1-dioxide] | ≤ 5

Second part, the molecule after the results:

Row | IC50 [nM] | SMILES
11 | ≤ 5 | CN1CCN(c2ccc(Nc3ncc(C(F)(F)F)c(-c4cc5c(s4)C(=O)N(C4CC4)CCS5(=O)=O)n3)c(C3CC3)c2)C[C@@H]1CO [Example 352, (R)-4-cyclopropyl-7-(2-((2-cyclopropyl-4-(3-(hydroxymethyl)-4-methylpiperazin-1-yl)phenyl)amino)-5-(trifluoromethyl)pyrimidin-4-yl)-3,4-dihydrothieno[2,3-f][1,4]thiazepin-5(2H)-one 1,1-dioxide]
12 | ≤ 5 | CCc1cc(C2CCN(CCF)CC2)ccc1Nc1ncc(C(F)(F)F)c(-c2cc3c(s2)C(=O)N(C2CC2)CCS3(=O)=O)n1 [Example 282, 4-cyclopropyl-7-(2-((2-ethyl-4-(1-(2-fluoroethyl)piperidin-4-yl)phenyl)amino)-5-(trifluoromethyl)pyrimidin-4-yl)-3,4-dihydrothieno[2,3-f][1,4]thiazepin-5(2H)-one 1,1-dioxide]
13 | ≤ 5 | CCc1cc(N2CCN(CC3CC3)CC2)ccc1Nc1ncc(C(F)(F)F)c(-c2cc3c(s2)C(=O)N(C2CC2)CCS3(=O)=O)n1 [Example 265, 4-cyclopropyl-7-(2-((4-(4-(cyclopropylmethyl)piperazin-1-yl)-2-ethylphenyl)amino)-5-(trifluoromethyl)pyrimidin-4-yl)-3,4-dihydrothieno[2,3-f][1,4]thiazepin-5(2H)-one 1,1-dioxide]
14 | ≤ 5 | C[C@@H]1CN(c2ccc(Nc3ncc(C(F)(F)F)c(-c4cc5c(s4)C(=O)N(C4COC4)CCS5(=O)=O)n3)c(C3CC3)n2)CCN1C [Example 376, (R)-7-(2-((2-cyclopropyl-6-(3,4-dimethylpiperazin-1-yl)pyridin-3-yl)amino)-5-(trifluoromethyl)pyrimidin-4-yl)-4-(oxetan-3-yl)-3,4-dihydrothieno[2,3-f][1,4]thiazepin-5(2H)-one 1,1-dioxide]
15 | ≤ 5 | CCc1cc(N2C[C@H](C)N(C)[C@@H](C)C2)ccc1Nc1ncc(C(F)(F)F)c(-c2cc3c(s2)C(=O)N(C2CC2)CCS3(=O)=O)n1 [Example 363, 4-cyclopropyl-7-(2-((2-ethyl-4-((3S,5S)-3,4,5-trimethylpiperazin-1-yl)phenyl)amino)-5-(trifluoromethyl)pyrimidin-4-yl)-3,4-dihydrothieno[2,3-f][1,4]thiazepin-5(2H)-one 1,1-dioxide]
16 | ≤ 5 | CCc1cc(N2C[C@@H](C)N(C)[C@@H](C)C2)ccc1Nc1ncc(C(F)(F)F)c(-c2cc3c(s2)C(=O)N(C2COC2)CCS3(=O)=O)n1 [Example 369, 7-(2-((2-ethyl-4-((3S,5R)-3,4,5-trimethylpiperazin-1-yl)phenyl)amino)-5-(trifluoromethyl)pyrimidin-4-yl)-4-(oxetan-3-yl)-3,4-dihydrothieno[2,3-f][1,4]thiazepin-5(2H)-one 1,1-dioxide]
17 | ≤ 5 | CCc1cc2c(cc1Nc1ncc(C(F)(F)F)c(-c3cc4c(s3)C(=O)N(C)CCS4(=O)=O)n1)CNCC2 [Example 212, 7-(2-((6-ethyl-1,2,3,4-tetrahydroisoquinolin-7-yl)amino)-5-(trifluoromethyl)pyrimidin-4-yl)-4-methyl-3,4-dihydrothieno[2,3-f][1,4]thiazepin-5(2H)-one 1,1-dioxide]
18 | 5 to 10 | N#CCN1CCc2cc(Nc3ncc(C(F)(F)F)c(-c4cc5c(s4)C(=O)N(C4COC4)CCS5(=O)=O)n3)c(C3CC3)cc2C1 [Example 285, 2-(7-cyclopropyl-6-((4-(4-(oxetan-3-yl)-1,1-dioxido-5-oxo-2,3,4,5-tetrahydrothieno[2,3-f][1,4]thiazepin-7-yl)-5-(trifluoromethyl)pyrimidin-2-yl)amino)-3,4-dihydroisoquinolin-2(1H)-yl)acetonitrile]
19 | ≤ 5 | C[C@@H]1CN(c2ccc(Nc3ncc(C(F)(F)F)c(-c4cc5c(s4)C(=O)N(C4CC4)CCS5(=O)=O)n3)c(C3CC3)c2)C[C@H](C)N1 [Example 326, 4-cyclopropyl-7-(2-((2-cyclopropyl-4-((3S,5R)-3,5-dimethylpiperazin-1-yl)phenyl)amino)-5-(trifluoromethyl)pyrimidin-4-yl)-3,4-dihydrothieno[2,3-f][1,4]thiazepin-5(2H)-one 1,1-dioxide]
20 | 10 to 50 | CCN1CCc2cc(Cl)c(Nc3ncc(C(F)(F)F)c(-c4cc5c(s4)C(=O)N(C)CCS5(=O)=O)n3)cc2C1 [Example 211, 7-(2-((6-chloro-2-ethyl-1,2,3,4-tetrahydroisoquinolin-7-yl)amino)-5-(trifluoromethyl)pyrimidin-4-yl)-4-methyl-3,4-dihydrothieno[2,3-f][1,4]thiazepin-5(2H)-one 1,1-dioxide]
21 | ≤ 5 | O=C1c2sc(-c3nc(Nc4ccc(C5CCNCC5)cc4C4CC4)ncc3C(F)(F)F)cc2S(=O)(=O)CCN1C1CC1 [Example 240, 4-cyclopropyl-7-(2-((2-cyclopropyl-4-(piperidin-4-yl)phenyl)amino)-5-(trifluoromethyl)pyrimidin-4-yl)-3,4-dihydrothieno[2,3-f][1,4]thiazepin-5(2H)-one 1,1-dioxide]
22 | ≤ 5 | CCc1cc(N2CCNCC2)ccc1Nc1ncc(C(F)(F)F)c(-c2cc3c(s2)C(=O)N(C2CC2)CCS3(=O)=O)n1 [Example 264, 4-cyclopropyl-7-(2-((2-ethyl-4-(piperazin-1-yl)phenyl)amino)-5-(trifluoromethyl)pyrimidin-4-yl)-3,4-dihydrothieno[2,3-f][1,4]thiazepin-5(2H)-one 1,1-dioxide]
23 | 10 to 50 | CCc1cc(C2CCN(CC(F)(F)F)CC2)ccc1Nc1ncc(C(F)(F)F)c(-c2cc3c(s2)C(=O)N(C2COC2)CCS3(=O)=O)n1 [Example 298, 7-(2-((2-Ethyl-4-(1-(2,2,2-trifluoroethyl)piperidin-4-yl)phenyl)amino)-5-(trifluoromethyl)pyrimidin-4-yl)-4-(oxetan-3-yl)-3,4-dihydrothieno[2,3-f][1,4]thiazepin-5(2H)-one 1,1-dioxide]
